Measurements as given in patent US8445512B2, “Substituted quinoline-3-carboxamides as KCNQ2/3 modulators” (Gruenenthal GmbH, priority 2010, dated 2013).

Legend:
[1] = target: T1, KCNQ2/3 channels (Homo sapiens, UniProt O43525+O43526); experiment: Fluorescence assay using a voltage sensitive dye (fluorimetry); assay type: cell-based; details: CHO-K1 cells expressing KCNQ2/3 channels; for Emax: relative to retigabine = 100%, read-out: Fluorimetry % efficacy (retigabine = 100%)
T1 construct: expressed in transfected cells
Protocol: Method I. Fluorescence Assay Using a Voltage Sensitive Dye (Fluorimetry)
[…] CHO-K1 cells expressing KCNQ2/3 channels are cultivated adherently at 37° C., 5% CO2 and 95% humidity in cell culture bottles (e.g. 80 cm^2 TC flasks, Nunc) with DMEM-high glucose (Sigma Aldrich, D7777) including 10% FCS (PAN Biotech, e.g. 3302-P270521) or alternatively MEM Alpha Medium (1×, liquid, Invitrogen, #22571), 10% fetal calf serum (FCS) (Invitrogen, #10270-106, heat-inactivated) and the necessary selection antibiotics.
Before being sown out for the measurements, the cells are washed with 1×DPBS buffer Ca^2+/Mg^2+-free (e.g. Invitrogen, #14190-094) and detached from the bottom of the culture vessel by using Accutase (PAA Laboratories, #L11-007) (incubation with Accutase for 15 min at 37° C.). The cell number is determined using a CASY™ cell counter (TCC, Schärfe System). Depending on the optimal density for each individual cell line, 20,000-30,000 cells/well/100 μl are seeded onto 96-well Corning™ CellBIND™ assay plates (Flat Clear Bottom Black Polystyrene Microplates, #3340). Freshly seeded cells are then left to settle for one hour at room temperature, followed by incubation for 24 hours at 37° C., 5% CO2 and 95% humidity.
The voltage-sensitive fluorescent dye from the Membrane Potential Assay Kit (Red™ Bulk format part R8123 for FLIPR, MDS Analytical Technologies™) is prepared by dissolving the contents of one vessel Membrane Potential Assay Kit Red Component A in 200 ml of extracellular buffer (ES buffer, 120 mM NaCl, 1 mM KCl, 10 mM HEPES, 2 mM CaCl2, 2 mM MgCl2, 10 mM glucose; pH 7.4). After removal of the nutrient medium, the cells are washed once with 200 μl of ES buffer, then loaded for 45 min at room temperature in 100 μl of dye solution in the dark.
Fluorescence measurements are carried out in a BMG Labtech FLUOstar™, BMG Labtech NOVOstar™ or BMG Labtech POLARstar™ instrument (525 nm excitation, 560 nm emission, Bottom Read mode). After incubation with the dye, 50 μl of the test substances in the desired concentrations, or 50 μl of ES buffer for control purposes, are applied to the wells of the assay plate and incubated for 30 min at room temperature while being shielded from light. The fluorescence intensity of the dye is then measured for 5 min and the fluorescence value F1 of each well is thus determined at a given, constant time. 15 μl of a KCl solution are then added to each well (final concentration of potassium ions 92 mM). The change in fluorescence intensity is subsequently monitored until all the relevant values have been obtained (mainly 5-30 min). At a given time post KCl application, a fluorescence value F2 is determined, in this case at the time of the fluorescence peak.
For calculation, the fluorescence intensity F2 is corrected for the fluorescence intensity F1, and the activity (ΔF/F) of the target compound on the potassium channel is determined as follows:
In order to determine whether a substance has agonistic activity,
[formula] can be related to
[formula] of control wells.
[formula] is determined by adding to the well only the buffer solution instead of the test substance, determining the value F1K of the fluorescence intensity, adding the potassium ions as described above, and measuring a value F2K of the fluorescence intensity. F2K and F1K are then calculated as follows: […]
A substance has an agonistic activity on the potassium channel if
[formula] is greater than
Independently of the comparison of
[formula] it is possible to conclude that a target compound has agonistic activity if
(§1) [formula] increases dose dependently. Calculations of EC50 and IC50 values are carried out with the aid of ‘Prism v4.0’ software (GraphPad Software™) Method II. Low-Intensity Tail Flick Test (Rat)

[2] = system: withdrawal reflex of the rat tail (tail flick) in response to a radiant heat beam; experiment: Low-intensity tail flick test (rat); assay type: in vivo; details: po, peroral, read-out: Low intensity tail flick, rat, peroral, % MPE (dose [mg/kg])
Protocol: as §1
In the low-intensity tail flick test, the determination of the antinociceptive effect of the compounds according to the invention towards an acute noxious thermal stimulus is carried out by measuring the withdrawal reflex of the rat tail (tail flick) in response to a radiant heat beam (analgesia meter; model 2011 of the company Rhema Labortechnik, Hofheim, Germany) according to the method described by D'Annour and Smith (J. Pharm. Exp. Ther. 72, 74 79 (1941). To this end, the rats were placed in a plexiglas restrainer, and a low-intensity radiant heat beam (48° C.) was focused onto the dorsal surface of the tail root. The stimulus intensity was adjusted to result in a mean pre-drug control withdrawal latency of about 7 s, thus also allowing a supraspinal modulation of the spinally mediated acute nociceptive reflex. A cutoff time of 30 s was applied to avoid tissue damage. Male Sprague-Dawley rats (Janvier, Le Genest St. Isle, Frankreich) with weights of 200-250 g were used. 10 rats were used per group. Before administration of a compound according to the invention, the animals were pre-tested twice in the course of five minutes and the mean of these measurements was calculated as the pre-test mean. The antinociceptive effect was determined at 20, 40 and 60 min after peroral compound administration. The antinociceptive effect was calculated based on the increase in the tail withdrawal latency according to the following formula and is expressed as percentage of the maximum possible effect (MPE [%]): MPE=[(T1−T0)/(T2−T0)]*100
In this, T0 is the control latency time before and T1 the latency time after administration of the compound, T2 is the cutoff time and MPE is the maximum possible effect. Employing variant analysis (repeated measures ANOVA) allowed testing of statistically significant differences between the compounds according to the invention and the vehicle group. The significance level was set to p≦0.05. To determine the dose dependency, the particular compound according to the invention was administered in 3-5 logarithmically increasing doses, including a threshold dose and a maximum effective dose, and the ED50 values were determined with the aid of regression analysis. The ED50 calculation was performed at the time of maximum efficacy (usually 20 min after administration of the compounds).

Row | EC50 [1] [nM] | Emax [1] [%] | SMILES | inhibition in vivo at 10 mg/kg [2] [%] | inhibition in vivo at 6.81 mg/kg [2] [%]
1 | 43 | 126 | CCCc1nc2cc(C(F)(F)F)ccc2c(C)c1C(=O)NCc1ccc(F)cc1 [Example 3, N-[(4-fluorophenyl)-methyl]-4-methyl-2-propyl-7-(trifluoromethyl)-quinoline-3-carboxylic acid amide] | 51 | 
2 | 178 | 177 | CCc1nc2cc(C(F)(F)F)ccc2c(C)c1C(=O)NCc1cccc(F)c1 [Example 6, 2-Ethyl-N-[(3-fluorophenyl)-methyl]-4-methyl-7-(trifluoromethyl)-quinoline-3-carboxylic acid amide] |  | 51
3 | 65 | 181 | Cc1c(C(=O)NCc2ccc(F)cc2)c(C(C)C)nc2cc(C(F)(F)F)ccc12 [Example 7, N-[(4-Fluorophenyl)-methyl]-2-isopropyl-4-methyl-7-(trifluoromethyl)-quinoline-3-carboxylic acid amide] | 54 | 
4 | 53 | 185 | Cc1c(C(=O)NCc2cccc(F)c2)c(C(C)C)nc2cc(C(F)(F)F)ccc12 [Example 8, N-[(3-Fluorophenyl)-methyl]-2-isopropyl-4-methyl-7-(trifluoromethyl)-quinoline-3-carboxylic acid amide] | 65 | 
5 | 126 | 161 | Cc1c(C(=O)NCc2ccc(F)cc2)c(C2CC2)nc2cc(C(F)(F)F)ccc12 [Example 9, 2-Cyclopropyl-N-[(4-fluorophenyl)-methyl]-4-methyl-7-(trifluoromethyl)-quinoline-3-carboxylic acid amide] | 15 | 
6 | 91 | 182 | Cc1c(C(=O)NCc2cccc(F)c2)c(C2CC2)nc2cc(C(F)(F)F)ccc12 [Example 10, 2-Cyclopropyl-N-[(3-fluorophenyl)-methyl]-4-methyl-7-(trifluoromethyl)-quinoline-3-carboxylic acid amide] |  | 43
7 | 635 | 117 | COCc1nc2cc(C(F)(F)F)ccc2c(C)c1C(=O)NCc1cccc(F)c1 [Example 15, N-[(3-fluorophenyl)-methyl]-2-(methoxymethyl)-4-methyl-7-(trifluoromethyl)-quinoline-3-carboxylic acid amide] | 9 | 
8 | 393 | 96 | COCc1nc2cc(C(F)(F)F)ccc2c(C)c1C(=O)NCc1ccc(F)cc1 [Example 16, N-[(4-Fluorophenyl)-methyl]-2-(methoxymethyl)-4-methyl-7-(trifluoromethyl)-quinoline-3-carboxylic acid amide] | 21 | 
9 | 190 | 163 | Cc1c(C(=O)NCc2ccc(F)cc2)c(C(C)C)nc2cc(C#N)ccc12 [Example 40, 7-Cyano-N-[(4-fluorophenyl)-methyl]-2-isopropyl-4-methyl-quinoline-3-carboxylic acid amide] |  | 
